Assay results as given in patent publication US11149018B2, “Substituted N-arylethyl-2-aminoquinoline-4-carboxamides and use thereof” (Bayer Aktiengesellschaft, priority 2017, dated 2021).

Target: FP receptor (Homo sapiens (Human), UniProt P43088)
Assay: In vitro test of inhibition of human FP receptor activity (PGF2α-induced calcium flux in FP-expressing CHEM1 cells)
Assay type: cell-based
Details: PGF2α 2 nM, some mean values of multiple determinations
Procedure, shortened: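 FP antagonism in FP-expressing CHEM1 cells loaded with Fluo-8. Compound preincubated 10 min at 37° C, then receptor stimulated with 2 nM (final) PGF2α in calcium-free Tyrode with 2 mM CaCl2.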

Chain of FP receptor (P43088 whole entry): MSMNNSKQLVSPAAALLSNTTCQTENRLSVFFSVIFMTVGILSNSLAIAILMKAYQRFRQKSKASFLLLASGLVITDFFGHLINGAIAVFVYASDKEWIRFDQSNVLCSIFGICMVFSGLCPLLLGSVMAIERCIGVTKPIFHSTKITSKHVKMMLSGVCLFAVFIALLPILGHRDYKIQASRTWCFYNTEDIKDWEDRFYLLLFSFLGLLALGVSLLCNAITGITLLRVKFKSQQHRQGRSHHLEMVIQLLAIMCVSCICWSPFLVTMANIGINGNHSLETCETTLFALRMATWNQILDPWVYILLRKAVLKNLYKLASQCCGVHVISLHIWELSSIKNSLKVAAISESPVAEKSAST

Structure (SMILES)	IC50 [nM]
Cc1c(N2CCCC(F)(F)C2)nc2ccc(Br)cc2c1C(=O)NCC(CCC(=O)O)c1c(Cl)ccc(Cl)c1Cl (racemic) [Example 177, (+/−)-5-({[6-Bromo-2-(3,3-difluoropiperidin-1-yl)-3-methylquinolin-4-yl]carbonyl}amino)-4-(2,3,6-trichlorophenyl)pentanoic acid]	10
Cc1c(N2CCCC(F)C2)nc2ccc(Br)cc2c1C(=O)NCC(CCC(=O)O)c1c(F)ccc(F)c1Cl (stereo not shown) [Example 156, 5-[({6-Bromo-2-[3-fluoropiperidin-1-yl]-3-methylquinolin-4-yl}carbonyl)amino]-4-(2-chloro-3,6-difluorophenyl)pentanoic acid]	2.5
Cc1c(N2CCCC(C)C2)nc2ccc(Br)cc2c1C(=O)NCC(CCC(=O)O)c1ccccc1Cl (single isomer, unassigned; (-)) [Example 46, (−)-5-[({6-Bromo-3-methyl-2-[3-methylpiperidin-1-yl]quinolin-4-yl}carbonyl)amino]-4-(2-chlorophenyl)pentanoic acid]	1.3
Cc1c(N2CCCCC2)nc2ccc(Br)cc2c1C(=O)NCC(CCC(=O)O)c1ccccc1C(F)(F)F (single isomer, unassigned; (-)) [Example 112, (−)-5-({[6-Bromo-3-methyl-2-(piperidin-1-yl)quinolin-4-yl]carbonyl}amino)-4-[2-(trifluoromethyl)phenyl]pentanoic acid]	3
CCC1CCCN(c2nc3ccc(Br)cc3c(C(=O)NCC(CCC(=O)O)c3ccccc3C(F)(F)F)c2C)C1 (single isomer, unassigned) [Example 195, 5-[({6-Bromo-2-[3-ethylpiperidin-1-yl]-3-methylquinolin-4-yl}carbonyl)amino]-4-[2-(trifluoromethyl)phenyl]pentanoic acid]	77
Cc1c(N2CCCC(F)C2)nc2ccc(Br)cc2c1C(=O)NCC(CCC(=O)O)c1ccccc1C(F)(F)F (single isomer, unassigned; (+)) [Example 189, (+)-5-[({6-Bromo-2-[3-fluoropiperidin-1-yl]-3-methylquinolin-4-yl}carbonyl)amino]-4-[2-(trifluoromethyl)phenyl]pentanoic acid]	25
Cc1c(N2CCCCC2)nc2ccc(Br)cc2c1C(=O)NCC(CCC(=O)O)c1cc(F)ccc1Cl (single isomer, unassigned; (+)) [Example 7, (+)-5-({[6-Bromo-3-methyl-2-(piperidin-1-yl)quinolin-4-yl]carbonyl}amino)-4-(2-chloro-5-fluorophenyl)pentanoic acid]	6.6
Cc1c(N2CCCC(C)C2)nc2ccc(Br)cc2c1C(=O)NCC(CCC(=O)O)c1c(F)ccc(F)c1Cl (stereo not shown) [Example 157, 5-[({6-Bromo-3-methyl-2-[3-methylpiperidin-1-yl]quinolin-4-yl}carbonyl)amino]-4-(2-chloro-3,6-difluorophenyl)pentanoic acid]	1.7
Cc1c(N2CCCCC2)nc2ccc(Br)cc2c1C(=O)NCC(CCC(=O)O)c1c(F)cccc1F (single isomer, unassigned; (+)) [Example 245, (+)-5-({[6-Bromo-3-methyl-2-(piperidin-1-yl)quinolin-4-yl]carbonyl}amino)-4-(2,6-difluorophenyl)pentanoic acid]	27
Cc1c(N2CCCC(F)C2)nc2ccc(Br)cc2c1C(=O)NCC(CCC(=O)O)c1ccccc1OC(F)(F)F (single isomer, unassigned; (-)) [Example 201, (−)-5-[({6-Bromo-2-[3-fluoropiperidin-1-yl]-3-methylquinolin-4-yl}carbonyl)amino]-4-[2-(trifluoromethoxy)phenyl]pentanoic acid]	2.7
CCNc1nc2ccc(Br)cc2c(C(=O)NCC(CCC(=O)O)c2ccccc2Cl)c1C (racemic) [Example 109, (+/−)-5-({[6-Bromo-2-(ethylamino)-3-methylquinolin-4-yl]carbonyl}amino)-4-(2-chlorophenyl)pentanoic acid]	860
CCC1CCCN(c2nc3ccc(Br)cc3c(C(=O)NCC(CCC(=O)O)c3cc(F)ccc3F)c2C)C1 (single isomer, unassigned; (+)) [Example 227, (+)-5-[({6-Bromo-2-[3-ethylpiperidin-1-yl]-3-methylquinolin-4-yl}carbonyl)amino]-4-(2,5-difluorophenyl)pentanoic acid]	57
[2H]C1([2H])N(c2nc3ccc(Br)cc3c(C(=O)NCC(CCC(=O)O)c3ccccc3OC(F)(F)F)c2C)C([2H])([2H])C([2H])([2H])C([2H])([2H])C1([2H])[2H] (single isomer, unassigned; (+)) [Example 271, (+)-5-[({6-Bromo-3-methyl-2-[(^2H10)piperidin-1-yl]quinolin-4-yl}carbonyl)amino]-4-[2-(trifluoromethoxy)phenyl]pentanoic acid]	6.3
Cc1ccccc1C(CCC(=O)O)CNC(=O)c1c(C)c(N2CCCC(F)(F)C2)nc2ccc(Br)cc12 (single isomer, unassigned; (-)) [Example 230, (−)-5-({[6-Bromo-2-(3,3-difluoropiperidin-1-yl)-3-methylquinolin-4-yl]carbonyl}amino)-4-(2-methylphenyl)pentanoic acid]	12
Cc1c(N2CCCC2)nc2ccc(Br)cc2c1C(=O)NCC(CCC(=O)O)c1c(F)ccc(F)c1Cl (single isomer, unassigned; (-)) [Example 216, (−)-5-({[6-Bromo-3-methyl-2-(pyrrolidin-1-yl)quinolin-4-yl]carbonyl}amino)-4-(2-chloro-3,6-difluorophenyl)pentanoic acid]	2.9
CCC1CCCN(c2nc3ccc(Br)cc3c(C(=O)NCC(CCC(=O)O)c3c(F)cccc3C(F)(F)F)c2C)C1 (stereo not shown) [Example 170, 5-[({6-Bromo-2-[3-ethylpiperidin-1-yl]-3-methylquinolin-4-yl}carbonyl)amino]-4-[2-fluoro-6-(trifluoromethyl)phenyl]pentanoic acid]	2.7
Cc1c(NCC2CC2)nc2ccc(Br)cc2c1C(=O)NCC(CCC(=O)O)c1ccccc1Cl (racemic) [Example 100, (+/−)-5-[({6-Bromo-2-[(cyclopropylmethyl)amino]-3-methylquinolin-4-yl}carbonyl)amino]-4-(2-chlorophenyl)pentanoic acid]	340
Cc1c(N2CCCC2)nc2ccc(Br)cc2c1C(=O)NCC(CCC(=O)O)c1cc(F)ccc1F (single isomer, unassigned; (-)) [Example 260, (−)-5-({[6-Bromo-3-methyl-2-(pyrrolidin-1-yl)quinolin-4-yl]carbonyl}amino)-4-(2,5-difluorophenyl)pentanoic acid]	29
Cc1c(N2CCCCO2)nc2ccc(Br)cc2c1C(=O)NCC(CCC(=O)O)c1ccccc1Cl (racemic) [Example 32, (+/−)-5-({[6-Bromo-3-methyl-2-(1,2-oxazinan-2-yl)quinolin-4-yl]carbonyl}amino)-4-(2-chlorophenyl)pentanoic acid]	48
Cc1c(N2CCCOCC2)nc2ccc(Br)cc2c1C(=O)NCC(CCC(=O)O)c1ccccc1Cl (racemic) [Example 90, (+/−)-5-({[6-Bromo-3-methyl-2-(1,4-oxazepan-4-yl)quinolin-4-yl]carbonyl}amino)-4-(2-chlorophenyl)pentanoic acid]	59
Cc1c(N2CCCC2)nc2ccc(Br)cc2c1C(=O)NCC(CCC(=O)O)c1cc(F)ccc1F (single isomer, unassigned; (+)) [Example 259, (+)-5-({[6-Bromo-3-methyl-2-(pyrrolidin-1-yl)quinolin-4-yl]carbonyl}amino)-4-(2,5-difluorophenyl)pentanoic acid]	55
Cc1ccc(F)cc1C(CCC(=O)O)CNC(=O)c1c(C)c(N2CCCC(F)(F)C2)nc2ccc(Br)cc12 (single isomer, unassigned; (-)) [Example 213, (−)-5-({[6-Bromo-2-(3,3-difluoropiperidin-1-yl)-3-methylquinolin-4-yl]carbonyl}amino)-4-(5-fluoro-2-methylphenyl)pentanoic acid]	10
Cc1c(N2CCCC2)nc2ccc(Br)cc2c1C(=O)NCC(CCC(=O)O)c1c(F)ccc(F)c1Cl (racemic) [Example 154, (+/−)-5-({[6-Bromo-3-methyl-2-(pyrrolidin-1-yl)quinolin-4-yl]carbonyl}amino)-4-(2-chloro-3,6-difluorophenyl)pentanoic acid]	3.4
Cc1c(N2CCS(=O)(=O)CC2)nc2ccc(Br)cc2c1C(=O)NCC(CCC(=O)O)c1ccccc1Cl (racemic) [Example 87, (+/−)-5-({[6-Bromo-2-(1,1-dioxidothiomorpholin-4-yl)-3-methylquinolin-4-yl]carbonyl}amino)-4-(2-chlorophenyl)pentanoic acid]	550
Cc1c(N2CCCC(F)C2)nc2ccc(Br)cc2c1C(=O)NCC(CCC(=O)O)c1ccccc1OC(F)(F)F (single isomer, unassigned; (-)) [Example 202, (−)-5-[({6-Bromo-2-[3-fluoropiperidin-1-yl]-3-methylquinolin-4-yl}carbonyl)amino]-4-[2-(trifluoromethoxy)phenyl]pentanoic acid]	1.7
Cc1c(N2CCCCC2)nc2ccc(Br)cc2c1C(=O)NCC(CCC(=O)O)c1c(F)cccc1OC(F)F (single isomer, unassigned; (-)) [Example 183, (−)-5-({[6-Bromo-3-methyl-2-(piperidin-1-yl)quinolin-4-yl]carbonyl}amino)-4-[2-(difluoromethoxy)-6-fluorophenyl]pentanoic acid]	1.6
Cc1c(N2CCCC(F)C2)nc2ccc(Br)cc2c1C(=O)NCC(CCC(=O)O)c1c(F)cccc1F (stereo not shown) [Example 253, 5-[({6-Bromo-2-(3-fluoropiperidin-1-yl)-3-methylquinolin-4-yl}carbonyl)amino]-4-(2,6-difluorophenyl)pentanoic acid]	25
Cc1c(N2CCC[C@H]2C)nc2ccc(Br)cc2c1C(=O)NCC(CCC(=O)O)c1ccccc1Cl (single isomer, unassigned; (+)) [Example 82]	3.9
